From patent US8557816B2, “Aurora kinase modulators and method of use” (Amgen Inc., priority 2007, dated 2013)
Where two headings read alike, the source gives them in different places.

Experiments:
AuroraB = target: T1, AuroraB (Homo sapiens, UniProt Q96GD4); test: AuroraB Homogeneous Time Resolved Fluorescent (HTRF) kinase assay; assay type: biochemical
T1 construct: 20 μL of AuroraB FL H is for a final volume of 41 μL; His
In short: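 Full-length His-tagged kinase phosphorylates biotinylated Histone H3 (0.1 μM final) with ATP in pH 7.5 HEPES containing MgCl, MnCl, DTT and BSA for about 90 min. EDTA-containing detection mix with SA-APC and Eu-anti-phosphoHistone H3 then equilibrated about 60 min; HTRF read with 320 nm excitation, emissions 615/655 nm.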

AuroraA-TPX2 = target: T2, AuroraA-TPX2 (Homo sapiens, UniProt O14965); test: AuroraA-TPX2 Homogeneous Time Resolved Fluorescent (HTRF) kinase assay; assay type: biochemical
T2 construct: 20 μL of AuroraA-TPX2 KD GST for a final volume of about 41 μL; GST
T2 sequence (O14965 133-383 limits assumed): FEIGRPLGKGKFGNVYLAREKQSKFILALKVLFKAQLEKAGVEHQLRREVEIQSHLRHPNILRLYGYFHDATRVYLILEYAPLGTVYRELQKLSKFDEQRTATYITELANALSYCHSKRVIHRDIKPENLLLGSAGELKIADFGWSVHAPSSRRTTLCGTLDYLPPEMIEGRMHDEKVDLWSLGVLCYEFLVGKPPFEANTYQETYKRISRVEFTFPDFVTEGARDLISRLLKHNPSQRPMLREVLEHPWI
T2 sequence (Q9ULW0 1-43 partner limits assumed): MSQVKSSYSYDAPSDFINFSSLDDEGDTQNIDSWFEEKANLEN
In short: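 HTRF read-out (Eu 615 nm to APC 655 nm) of phosphorylated biotin-PLK, detected with 0.02 nM europium anti-phosphoPLK antibody and 0.0005 mg/mL SA-APC after overnight equilibration.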

HeLa cells = test: HeLa cell 24 hr ploidy assay (DNA content); assay type: cell-based
Description: HeLa Cell 24 hr Ploidy Assay Protocol
The purpose of this assay is to evaluate the ability of selected individual compounds to induce Deoxyribonucleic acid (DNA) content (ploidy) in cells through failed cell division. Cell cycle analysis is a rapid and efficient way to evaluate the status of DNA content (ploidy) of a given cell. HeLa cells (1×10^4 HeLa cells/well) in 100 ul of media (MEM+10% FBS) were plated in 96-well plates (Packard View) and cultured for 24 hrs at 37° C. maintained in a 5% CO2 atmosphere. […] The compounds were serially diluted in DMSO (0.25% final concentration). The cells were fixed (3.7% Formaldehyde and 1% glutaraldehyde) and permeabilized (1×PBS with 1% BSA and 0.2% Triton X-100) in preparation for nuclear staining. The well plates were stained for 45 minutes at RT in the dark using Hoechest 33342 nuclear stain at 0.5 ug.ml (Stock of 10 mg/ml, Invitrogen, CA, Cat # H3570). The nuclear stain was removed by aspiration and the cells were washed with wash buffer. A Cellomics Array Scan Vti plate reader was used to acquire the DNA ploidy data of the cells using Cell Cycle bioapplication. Numbers for each of “valid cell count/well”, “% of 4N cells” and “% of >4Ncells” were calculated with the assistance of an Activity Base 5.1ca software and dose curves were generated using an XLFit software. With XLFit, final EC50 IP and EC50 transit values, as well as the Max and Min, were calculated for each curve.

[1] = average, read-out: AurB_IC50_IP (uM Avg)
[2] = average, read-out: AurA_IC50_IP (uM Avg)

T1 sequence (Q96GD4 whole entry): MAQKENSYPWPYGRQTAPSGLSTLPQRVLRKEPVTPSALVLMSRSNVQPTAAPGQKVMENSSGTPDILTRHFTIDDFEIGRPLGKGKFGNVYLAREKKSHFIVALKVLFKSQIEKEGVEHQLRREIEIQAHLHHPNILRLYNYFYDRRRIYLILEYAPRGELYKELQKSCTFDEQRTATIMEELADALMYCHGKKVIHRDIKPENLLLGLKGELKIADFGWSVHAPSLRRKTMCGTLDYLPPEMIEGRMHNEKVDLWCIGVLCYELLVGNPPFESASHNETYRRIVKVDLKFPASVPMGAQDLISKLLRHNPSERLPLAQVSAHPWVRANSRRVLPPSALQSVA

Row | Compound | IC50 (AuroraB; [1]) [µM] | IC50 (AuroraA-TPX2; [2]) [µM] | IC50 (AuroraB; given as class symbol, read-out: AurB_IC50_IP (class symbol)) [µM] | IC50 (AuroraA-TPX2; given as class symbol, read-out: AurA_IC50_IP (class symbol)) [µM] | EC50 (HeLa cells; given as class symbol, read-out: 24h_4N Ploidy EC50_IP (class symbol)) [µM] | EC50 (HeLa cells; 4N DNA content, average, read-out: 24h_4N Ploidy EC50_IP (uM Avg)) [µM]
1 | COc1cc2nccc(Sc3ccc(Nc4nnc(-c5ccc(Cl)cc5)c5ccccc45)cc3)c2nc1OC [compound 598] | 0.595 | 0.135 |  |  |  | 
2 | Brc1cnc2c(Oc3ccc(Nc4nnc(-c5ccccc5)c5ccccc45)cc3)ncnc2c1 [compound 599] | 0.256 | 0.794 |  |  |  | 
3 | COc1cnc2c(Sc3ccc(Nc4nnc(N5CCN6C[C@H](F)C[C@H]6C5)c5ccccc45)cc3)ccnc2c1 [compound 600] | 0.01 | 0.014 |  |  |  | 
4 | COc1cnc2c(Sc3ccc(Nc4nnc(N5CCN6CC(F)(F)C[C@H]6C5)c5ccccc45)cc3)ccnc2c1 [compound 601] | 0.012 | 0.021 |  |  |  | 
5 | COc1cnc2c(Oc3ccc(Nc4nnc(N5CCN6CCCCC[C@@H]6C5)c5ccccc45)cc3)ccnc2c1 [compound 604] | 0.013 | 0.027 |  |  |  | 
6 | COc1cnc2c(Sc3ccc(Nc4nnc(N5CCN(S(C)(=O)=O)CC5)c5ccccc45)cc3)ccnc2c1 [compound 605] | 0.083 | 0.803 |  |  |  | 
7 | COc1cc(OC)c2c(Oc3ccc(Nc4nnc(-c5ccccc5)c5ccccc45)cn3)ncnc2c1 [compound 606] | 0.035 | > 25 |  |  |  | 
8 | COc1cnc2c(Oc3ccc(Nc4nnc(N5CCN(S(C)(=O)=O)CC5)c5ccccc45)cc3)ccnc2c1 [compound 607] | 0.324 | 2.82 |  |  |  | 
9 | COc1cnc2c(Sc3ccc(Nc4nnc(N5CCN(C(C)=O)CC5)c5ccccc45)cc3)ccnc2c1 [compound 608] | 0.022 | 0.352 |  |  |  | 
10 | CCc1cc(-c2ccccc2OC)nnc1Nc1ccc(Sc2ccnc3cc(OC)cnc23)cc1 [compound 609] | 0.02 | 0.123 |  |  |  | 
11 | Clc1ccc(-c2nnc(Nc3ccc(Oc4ccnc5cc(OCc6ccccc6)cnc45)cc3)c3ccccc23)cc1 [compound 610] | 0.033 | 0.047 |  |  |  | 
12 | COc1ccc2c(C(C)c3ccc(Nc4nnc(-c5ccc(Cl)cc5)c5ccccc45)cc3)ccnc2c1 (stereo not shown) [compound 613] | 0.243 | > 25 |  |  |  | 
13 | COc1ccc2c(C(O)c3ccc(Nc4nnc(-c5ccc(Cl)cc5)c5ccccc45)cc3)ccnc2c1 (stereo not shown) [compound 614] | 0.046 | 0.223 |  |  |  | 
14 | COc1ccc2c(C(=O)c3ccc(Nc4nnc(-c5ccc(Cl)cc5)c5ccccc45)cc3)ccnc2c1 [compound 615] | 0.039 | 0.3 |  |  |  | 
15 | (7-(4-(4-(4-methylthiophen-2-yl)phthalazin-1-ylamino)phenylthio)thieno[3,2-b]pyridin-2-yl)(morpholino)methanone [compound 296] |  |  | < 0.1 | < 0.1 | < 0.1 | 
16 | N-(5-(7-methoxy-1,5-naphthyridin-4-yloxy)pyridin-2-yl)-4-phenylphthalazin-1-amine [Example 54] | 0.02 | 0.176 |  |  |  | 0.028
